According to patent US9919029B2, “Methods and pharmaceutical compositions for the treatment of bacterial infections” (INSERM (INSTITUT NATIONAL DE LA SANTE ET DE LA RECHERCHE …, priority 2013, dated 2018):

Tested on: Streptococcus pneumoniae
Assay: Streptococcus pneumoniae respiratory infection in mice
Type: in vivo, BALB/c mice
Details: severe/advanced infection; nasal flagellin plus antibiotic (oral amoxicillin or intraperitoneal bactrim)
Procedure: (§1) Animals were infected with a lethal dose of Streptococcus pneumoniae (1-5×10^6 CFU of serotypel, clinical isolate E1586) and treated at 40 h and 48 h as depicted in the upper panel. Seventeen hours later (T=65 h), bacterial counts were defined by plating tissue homogenates. The Left side: bacterial counts per lung. Right side: bacterial counts per spleen.
as §1, with “30” for “40 h and 48”, “Sixteen” for “Seventeen”, “(T=46” for “(T=65”
Animals were infected with a lethal dose of Streptococcus pneumoniae (1-5×10^6 CFU of serotypel, clinical isolate E1586) and treated from 12 h to 84 h as depicted in the upper panel. Survival of animals was then analyzed during 5 days.
FIG. 6. […] (A) S. pneumoniae-infected (2×10^6 CFU) BALB/c mice were treated intraperitoneally with 4.8 mg bactrim, i.e. co-trimoxazole (TMP-SMX) and intranasally with 2.5 μg flagellin FliCΔ174-400 and analyzed as indicated. (B) Survival was monitored every 12 h for 9 days. (C, D) Bacterial counts in lung (C) and spleen (D) was determined by measuring CFU per tissue. […] (E) The body weight of infected animals was measured and expressed relative to the initial weight. […]

flagellin
reduction of number of bacteria compared to the antibiotic therapy alone: 10-to-50 fold
